Experimental data as given in US20140256660A1, “ANTIBIOTIC CONJUGATES LINKED WITH STEROID DRUGS” (Allergan, Inc., priority 2013, published 2014).

System: human recombinant carboxylesterases
Assay: In vitro metabolic stability (rate of metabolite formation) in human recombinant carboxylesterases
Type: in vitro ADME
Conditions: human recombinant carboxylesterases 0.1 mg/mL, 1 μM test compound, pH 6.0, 37° C.
Description: Dutch Belted rabbits were euthanized with an overdose of sodium pentobarbital. The corneas were collected and homogenized in ice-cold potassium chloride solution (pH=7.4). The homogenate was centrifuged at 755×g for 30 min at 4° C. and aliquots of the supernatant were stored at or below −70° C. until metabolism experiments were conducted. Prior to storing the homogenates an aliquot was removed for determination of protein concentrations by calculating the 260 nm absorbance using a spectrophotometer. Human recombinant carboxylesterases were purchased from a commercial vendor (BD Gentest™, Bedford, Mass.)
All metabolic stability experiments were performed in triplicate in 96-well plate format. The final incubation mixture contained 1 μM test compound, 0.3 mg/mL corneal protein homogenate or 0.1 mg/mL human recombinant carboxylesterase mixture in a final volume of 0.5 mL 0.1 M potassium phosphate buffer (pH=6.0). The final percentage of solvent in the incubation was less than 1.0% to prevent inhibition of enzymatic activity. Following a pre-incubation at 37° C., test article (i.e. ester linked hybrids) was added to initiate the reaction. At designated time points (typically less than 60 minutes to capture the linear range of metabolite formation), 0.05 mL aliquots were removed from the incubation mixtures using a clean pipet tip and immediately placed in organic solvent to stop any esterase activity.
Hydrolysis of the metabolites was confirmed to be due to esterase activity and not chemical lability. The samples were analyzed by liquid chromatography with mass spectrometry (LC-MS/MS) detection to determine the metabolite concentrations resulting from the metabolism of ester linked hybrids. Internal standards were used to compensate for variability from sample processing, chromatographic elution, mass spectrometer response and ion suppression by matrix components.

Row | Structure (SMILES) | Rate of formation Metabolite 2 (Moxifloxacin) [nM/min/mg] | Rate of formation Metabolite 1 (Prednisolone) [nM/min/mg] | Rate of formation Metabolite 1 (Dexamethasone) (metabolite Dexamethasone) [nM/min/mg] | Rate of formation Metabolite 2 (Gatifloxacin) [nM/min/mg] | Rate of formation Metabolite 1 (Betamethasone) (metabolite Betamethasone) [nM/min/mg]
1 | COc1c(N2C[C@@H]3CCCN[C@@H]3C2)c(F)cc2c(=O)c(C(=O)OC(C)OC(=O)OCC(=O)[C@]3(O)CC[C@@H]4[C@H]5CCC6=CC(=O)C=C[C@@]6(C)C5[C@H](O)C[C@]43C)cn(C3CC3)c12 (relative stereo) [Compound 65, 1-[({2-[(8R,10S,11R,13R,14R,17S)-11,17-dihydroxy-10,13-dimethyl-3-oxo-6,7,8,9,10,11,12,13,14,15,16,17-dodecahydro-3H-cyclopenta[a]phenanthren-17-yl]-2-oxoethoxy}carbonyl)oxy]ethyl rel-1-cyclopropyl-6-fluoro-8-methoxy-7-[(4aS,7aS)-octahydro-6H-pyrrolo[3,4-b]pyridin-6-yl]-4-oxo-1,4-dihydroquinoline-3-carboxylate] | 482 ± 72 | 364 ± 27 |  |  | 
2 | COc1c(N2CC3CCCN(C(=O)OCOC(=O)CCC(=O)OCC(=O)[C@]4(O)CC[C@@H]5[C@H]6CCC7=CC(=O)C=C[C@@]7(C)[C@@H]6[C@H](O)C[C@]54C)C3C2)c(F)cc2c(=O)c(C(=O)O)cn(C3CC3)c12 (relative stereo) [Compound 59, rel-1-cyclopropyl-7-[1-({[(4-{2-[(8R,9R,10S,11R,13R,14R,17S)-11,17-dihydroxy-10,13-dimethyl-3-oxo-6,7,8,9,10,11,12,13,14,15,16,17-dodecahydro-3H-cyclopenta[a]phenanthren-17-yl]-2-oxoethoxy}-4-oxobutanoyl)oxy]methoxy}carbonyl)octahydro-6H-pyrrolo[3,4-b]pyridin-6-yl]-6-fluoro-8-methoxy-4-oxo-1,4-dihydroquinoline-3-carboxylic acid] | 350 ± 180 | 416 ± 192 |  |  | 
3 | COc1c(N2CCNC(C)C2)c(F)cc2c(=O)c(C(=O)OCCCOC(=O)CCC(=O)OCC(=O)[C@]3(O)[C@@H](C)C[C@@H]4[C@H]5CCC6=CC(=O)C=C[C@@]6(C)[C@]5(F)[C@H](O)C[C@]43C)cn(C3CC3)c12 (relative stereo) [Compound 18, 3-({[1-cyclopropyl-6-fluoro-8-methoxy-7-(3-methylpiperazin-1-yl)-4-oxo-1,4-dihydroquinolin-3-yl]carbonyl}oxy)propyl 2-[(8R,9S,10R,11R,13R,14R,16S,17S)-9-fluoro-11,17-dihydroxy-10,13,16-trimethyl-3-oxo-6,7,8,9,10,11,12,13,14,15,16,17-dodecahydro-3H-cyclopenta[a]phenanthren-17-yl]-2-oxoethyl rel-butanedioate] |  |  | 59.7 ± 5.15 | 2.44 ± 0.87 | 
4 | COc1c(N2C[C@@H]3CCCN[C@@H]3C2)c(F)cc2c(=O)c(C(=O)OCOC(=O)OCC(=O)[C@]3(O)CC[C@@H]4[C@H]5CCC6=CC(=O)C=C[C@@]6(C)C5[C@H](O)C[C@]43C)cn(C3CC3)c12 (relative stereo) [Compound 64, [({2-[(8R,10S,11R,13R,14R,17S)-11,17-dihydroxy-10,13-dimethyl-3-oxo-6,7,8,9,10,11,12,13,14,15,16,17-dodecahydro-3H-cyclopenta[a]phenanthren-17-yl]-2-oxoethoxy}carbonyl)oxy]methyl rel-1-cyclopropyl-6-fluoro-8-methoxy-7-[(4aS,7aS)-octahydro-6H-pyrrolo[3,4-b]pyridin-6-yl]-4-oxo-1,4-dihydroquinoline-3-carboxylate] | 644 ± 20 | 641 ± 22 |  |  | 
5 | COc1c(N2CCNC(C)C2)c(F)cc2c(=O)c(C(=O)OC(C)OC(=O)OCC(=O)[C@]3(O)CC[C@@H]4[C@H]5CCC6=CC(=O)C=C[C@@]6(C)C5[C@H](O)C[C@]43C)cn(C3CC3)c12 (relative stereo) [Compound 43, 1-[({2-[(8R,10S,11R,13R,14R,17S)-11,17-dihydroxy-10,13-dimethyl-3-oxo-6,7,8,9,10,11,12,13,14,15,16,17-dodecahydro-3H-cyclopenta[a]phenanthren-17-yl]-2-oxoethoxy}carbonyl)oxy]ethyl rel-1-cyclopropyl-6-fluoro-8-methoxy-7-(3-methylpiperazin-1-yl)-4-oxo-1,4-dihydroquinoline-3-carboxylate] |  | 298 ± 13 |  | 419 ± 8 | 
6 | COc1c(N2CCN(C(=O)OCOC(=O)CCC(=O)OCC(=O)[C@@]3(O)[C@@H](C)CC4C5CCC6=CC(=O)C=C[C@]6(C)[C@@]5(F)[C@@H](O)C[C@@]43C)C(C)C2)c(F)cc2c(=O)c(C(=O)O)cn(C3CC3)c12 (relative stereo) [Compound 2, rel-1-cyclopropyl-6-fluoro-7-[4-({[(4-{2-[(9R,10S,11S,13S,16S,17R)-9-fluoro-11,17-dihydroxy-10,13,16-trimethyl-3-oxo-6,7,8,9,10,11,12,13,14,15,16,17-dodecahydro-3H-cyclopenta[a]phenanthren-17-yl]-2-oxoethoxy}-4-oxobutanoyl)oxy]methoxy}carbonyl)-3-methylpiperazin-1-yl]-8-methoxy-4-oxo-1,4-dihydroquinoline-3-carboxylic acid] |  |  |  | 112 ± 4 | 109 ± 2
